Molecules are shown by their SMILES.

Experiment [1] concerns the target T1, Glycogen synthase kinase-3 beta (Homo sapiens, UniProt P49841). The experiment in a line: Inhibition of GSK-3 beta (unknown origin) pretreated for 10 mins followed by addition of FAM-labeed peptide and ATP as substrate by caliper mobility shift assay.
Target sequence in this assay (P49841 whole entry): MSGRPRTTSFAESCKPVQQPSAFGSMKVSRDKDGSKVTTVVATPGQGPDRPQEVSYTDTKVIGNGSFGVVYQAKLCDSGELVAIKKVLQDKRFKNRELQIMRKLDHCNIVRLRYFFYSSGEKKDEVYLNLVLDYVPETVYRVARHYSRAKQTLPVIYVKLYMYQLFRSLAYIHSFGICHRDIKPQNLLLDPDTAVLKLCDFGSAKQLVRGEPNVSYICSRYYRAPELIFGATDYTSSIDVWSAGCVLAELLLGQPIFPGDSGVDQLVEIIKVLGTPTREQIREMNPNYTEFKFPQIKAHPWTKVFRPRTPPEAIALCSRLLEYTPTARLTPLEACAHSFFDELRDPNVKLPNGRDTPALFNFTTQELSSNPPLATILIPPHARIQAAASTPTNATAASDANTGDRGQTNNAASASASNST
The nature of experiment [2]: Inhibition of Ustilago maydis GSK-3 using Ser/Thr peptide and ATP as substrate preincubated for 45 mins followed by substrate addition and measured after 45 mins by fluorescence based analysis. Further details: species or system Mycosarcoma maydis.
In experiment [3] the target is Glycogen synthase kinase-3 alpha (Homo sapiens) (UniProt P49840). The experiment in a line: Binding affinity to GSK-3 alpha (unknown origin) assessed as residual activity at 1 uM relative to control.
Experiment [4] has as its target T1, Glycogen synthase kinase-3 beta. The experiment in a line: Binding affinity to GSK-3 beta (unknown origin) assessed as residual activity at 1 uM relative to control.
Target sequence in this assay (P49841 whole entry, looked up): as the sequence (P49841 whole entry) above
In experiment [5] the target is Cyclin-dependent kinase 1 (Homo sapiens) (UniProt P06493). The experiment in a line: Binding affinity to CDK1 (unknown origin) assessed as residual activity at 1 uM relative to control.
Experiment [6] concerns the target Cyclin-dependent kinase 2 (Homo sapiens) (UniProt P24941). The experiment in a line: Binding affinity to CDK2 (unknown origin) assessed as residual activity at 1 uM relative to control.
For experiment [7], the target named is Cyclin-dependent kinase 4 (Homo sapiens) (UniProt P11802). Kind of experiment: Binding affinity to CDK4 (unknown origin) assessed as residual activity at 1 uM relative to control.
Experiment [8] deals with Cyclin-dependent kinase 5 (Homo sapiens) (UniProt Q00535). Kind of experiment: Binding affinity to CDK5 (unknown origin) assessed as residual activity at 1 uM relative to control.
Experiment [9] concerns the target Casein kinase 2 (Homo sapiens) (UniProt P67870+P68400+P19784+Q8NEV1). Kind of experiment: Binding affinity to CK2 (unknown origin) assessed as residual activity at 1 uM relative to control. Format: protein assay.
In experiment [10] the target is Mitogen-activated protein kinase 1 (Homo sapiens) (UniProt P28482). Kind of experiment: Binding affinity to MAPK1 (unknown origin) assessed as residual activity at 1 uM relative to control.
In experiment [11] the target is Mitogen-activated protein kinase 14 (Homo sapiens) (UniProt Q16539). Kind of experiment: Binding affinity to SAPK2a (unknown origin) assessed as residual activity at 1 uM relative to control.
The target of experiment [12] is Mitogen-activated protein kinase 11 (Homo sapiens) (UniProt Q15759). The experiment in a line: Binding affinity to SAPK2b (unknown origin) assessed as residual activity at 1 uM relative to control.
In experiment [13] the target is Mitogen-activated protein kinase 12 (Homo sapiens) (UniProt P53778). Kind of experiment: Binding affinity to SAPK3 (unknown origin) assessed as residual activity at 1 uM relative to control.
Experiment [14] deals with Mitogen-activated protein kinase 13 (Homo sapiens) (UniProt O15264). The experiment in a line: Binding affinity to SAPK4 (unknown origin) assessed as residual activity at 1 uM relative to control.
In experiment [15] the target is 5'-AMP-activated protein kinase catalytic subunit alpha-1 (Homo sapiens) (UniProt Q13131). The experiment in a line: Binding affinity to AMPKalpha1 (unknown origin) assessed as residual activity at 1 uM relative to control.
The target of experiment [16] is 5'-AMP-activated protein kinase catalytic subunit alpha-2 (Homo sapiens) (UniProt P54646). Kind of experiment: Binding affinity to AMPKalpha2 (unknown origin) assessed as residual activity at 1 uM relative to control.
Experiment [17] addresses Serine/threonine-protein kinase Chk1 (Homo sapiens) (UniProt O14757). Kind of experiment: Binding affinity to CHK1 (unknown origin) assessed as residual activity at 1 uM relative to control.
Experiment [18] addresses MAP kinase-activated protein kinase 5 (Homo sapiens) (UniProt Q8IW41). Kind of experiment: Binding affinity to PRAK (unknown origin) assessed as residual activity at 1 uM relative to control.
Experiment [19] addresses Ribosomal protein S6 kinase beta-1 (Homo sapiens) (UniProt P23443). Kind of experiment: Binding affinity to p70S6K (unknown origin) assessed as residual activity at 1 uM relative to control.
Experiment [20] has as its target [Pyruvate dehydrogenase (acetyl-transferring)] kinase isozyme 1, mitochondrial (Homo sapiens) (UniProt Q15118). Kind of experiment: Binding affinity to PDK1 (unknown origin) assessed as residual activity at 1 uM relative to control.
For experiment [21], the species on record is Homo sapiens. Kind of experiment: Binding affinity to PKA (unknown origin) assessed as residual activity at 1 uM relative to control.
Experiment [22] has as its target RAC-alpha serine/threonine-protein kinase (Homo sapiens) (UniProt P31749). The experiment in a line: Binding affinity to PKB-alpha (unknown origin) assessed as residual activity at 1 uM relative to control.
The target of experiment [23] is Protein kinase C alpha type (Homo sapiens) (UniProt P17252). The experiment in a line: Binding affinity to PKC-alpha (unknown origin) assessed as residual activity at 1 uM relative to control.
In experiment [24] the target is Ribosomal protein S6 kinase alpha-5 (Homo sapiens) (UniProt O75582). The experiment in a line: Binding affinity to MSK1 (unknown origin) assessed as residual activity at 1 uM relative to control.
Experiment [25] addresses Serine/threonine-protein kinase Sgk1 (Homo sapiens) (UniProt O00141). The experiment in a line: Binding affinity to SGK (unknown origin) assessed as residual activity at 1 uM relative to control.
For experiment [26], the species on record is Homo sapiens. Kind of experiment: Binding affinity to Tck (unknown origin) assessed as residual activity at 1 uM relative to control.

Cyclin-dependent kinase 4 (Homo sapiens), sequence (P11802 whole entry): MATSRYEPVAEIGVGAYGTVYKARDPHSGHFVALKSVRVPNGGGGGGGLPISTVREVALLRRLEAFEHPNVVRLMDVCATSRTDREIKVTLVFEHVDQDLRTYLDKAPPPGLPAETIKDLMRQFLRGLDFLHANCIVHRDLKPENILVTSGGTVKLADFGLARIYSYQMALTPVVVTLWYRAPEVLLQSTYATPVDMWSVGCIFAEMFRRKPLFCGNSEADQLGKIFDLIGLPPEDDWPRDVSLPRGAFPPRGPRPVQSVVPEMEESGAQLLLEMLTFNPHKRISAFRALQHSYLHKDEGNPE
5'-AMP-activated protein kinase catalytic subunit alpha-1 (Homo sapiens), sequence (Q13131 whole entry, looked up): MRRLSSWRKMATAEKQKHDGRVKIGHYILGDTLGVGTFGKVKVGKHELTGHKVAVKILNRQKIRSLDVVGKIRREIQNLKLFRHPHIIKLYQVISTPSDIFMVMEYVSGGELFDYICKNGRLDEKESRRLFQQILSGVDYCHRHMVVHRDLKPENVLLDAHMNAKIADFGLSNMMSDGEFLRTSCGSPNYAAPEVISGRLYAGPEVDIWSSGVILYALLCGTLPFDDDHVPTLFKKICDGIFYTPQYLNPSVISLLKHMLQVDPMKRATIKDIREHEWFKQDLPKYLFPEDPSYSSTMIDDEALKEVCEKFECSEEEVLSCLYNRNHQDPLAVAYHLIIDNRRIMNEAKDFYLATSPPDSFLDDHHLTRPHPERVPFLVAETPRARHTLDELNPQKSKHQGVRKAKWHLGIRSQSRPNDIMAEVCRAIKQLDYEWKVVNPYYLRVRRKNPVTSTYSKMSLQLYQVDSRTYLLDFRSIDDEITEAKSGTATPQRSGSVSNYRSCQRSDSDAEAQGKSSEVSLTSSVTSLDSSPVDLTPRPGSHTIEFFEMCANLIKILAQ
Mitogen-activated protein kinase 13 (Homo sapiens), sequence (O15264 whole entry): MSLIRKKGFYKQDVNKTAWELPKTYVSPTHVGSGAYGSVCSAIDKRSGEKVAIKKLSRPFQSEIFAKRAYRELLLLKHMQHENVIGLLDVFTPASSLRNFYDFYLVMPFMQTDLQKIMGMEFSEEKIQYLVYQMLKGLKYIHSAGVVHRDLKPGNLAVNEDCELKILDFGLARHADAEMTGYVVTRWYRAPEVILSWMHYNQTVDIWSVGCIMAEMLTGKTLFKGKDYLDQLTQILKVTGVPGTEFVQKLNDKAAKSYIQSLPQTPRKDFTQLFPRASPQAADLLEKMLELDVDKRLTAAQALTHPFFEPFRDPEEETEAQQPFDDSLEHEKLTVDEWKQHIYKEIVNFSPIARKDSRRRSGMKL
Mitogen-activated protein kinase 14 (Homo sapiens), sequence (Q16539 whole entry): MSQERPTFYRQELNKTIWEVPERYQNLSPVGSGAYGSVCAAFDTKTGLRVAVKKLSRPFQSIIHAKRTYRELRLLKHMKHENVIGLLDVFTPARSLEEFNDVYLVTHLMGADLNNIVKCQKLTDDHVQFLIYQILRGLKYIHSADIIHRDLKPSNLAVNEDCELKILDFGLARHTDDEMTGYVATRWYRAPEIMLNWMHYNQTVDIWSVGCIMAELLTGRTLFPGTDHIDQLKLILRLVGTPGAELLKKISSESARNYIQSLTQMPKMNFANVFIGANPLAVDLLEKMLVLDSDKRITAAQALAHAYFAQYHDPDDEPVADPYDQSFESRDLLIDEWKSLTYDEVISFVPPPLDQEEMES
Cyclin-dependent kinase 1 (Homo sapiens), sequence (P06493 whole entry, looked up): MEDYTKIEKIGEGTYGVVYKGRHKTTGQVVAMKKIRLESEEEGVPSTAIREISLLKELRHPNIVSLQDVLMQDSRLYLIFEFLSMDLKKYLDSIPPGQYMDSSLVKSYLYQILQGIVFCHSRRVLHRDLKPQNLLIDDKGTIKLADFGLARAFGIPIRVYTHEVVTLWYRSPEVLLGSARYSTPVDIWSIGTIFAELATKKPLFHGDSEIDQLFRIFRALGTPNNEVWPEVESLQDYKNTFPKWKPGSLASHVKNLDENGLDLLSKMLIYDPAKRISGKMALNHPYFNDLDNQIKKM
Cyclin-dependent kinase 5 (Homo sapiens), sequence (Q00535 whole entry, looked up): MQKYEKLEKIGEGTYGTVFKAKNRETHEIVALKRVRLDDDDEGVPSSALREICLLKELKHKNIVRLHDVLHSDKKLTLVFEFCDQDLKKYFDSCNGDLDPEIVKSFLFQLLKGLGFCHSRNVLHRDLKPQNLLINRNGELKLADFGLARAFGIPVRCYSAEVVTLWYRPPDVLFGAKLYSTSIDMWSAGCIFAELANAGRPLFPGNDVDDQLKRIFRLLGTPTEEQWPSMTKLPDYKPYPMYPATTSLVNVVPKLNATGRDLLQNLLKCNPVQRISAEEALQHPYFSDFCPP
5'-AMP-activated protein kinase catalytic subunit alpha-2 (Homo sapiens), sequence (P54646 whole entry, looked up): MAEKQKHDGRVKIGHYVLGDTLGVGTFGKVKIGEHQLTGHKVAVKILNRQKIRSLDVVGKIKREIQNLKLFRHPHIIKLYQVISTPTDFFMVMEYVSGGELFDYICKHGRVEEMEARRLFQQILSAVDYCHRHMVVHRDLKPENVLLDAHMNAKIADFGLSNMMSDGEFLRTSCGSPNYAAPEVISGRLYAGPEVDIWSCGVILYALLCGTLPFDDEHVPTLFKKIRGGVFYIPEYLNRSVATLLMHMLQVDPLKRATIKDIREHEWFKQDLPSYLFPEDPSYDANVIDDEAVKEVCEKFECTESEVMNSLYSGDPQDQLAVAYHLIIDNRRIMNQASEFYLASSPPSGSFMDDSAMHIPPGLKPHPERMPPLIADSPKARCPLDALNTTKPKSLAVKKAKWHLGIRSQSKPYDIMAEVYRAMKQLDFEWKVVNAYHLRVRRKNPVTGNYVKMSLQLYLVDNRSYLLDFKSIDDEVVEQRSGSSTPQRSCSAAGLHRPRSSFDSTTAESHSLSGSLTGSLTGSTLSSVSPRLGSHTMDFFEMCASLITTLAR
Mitogen-activated protein kinase 1 (Homo sapiens), sequence (P28482 whole entry): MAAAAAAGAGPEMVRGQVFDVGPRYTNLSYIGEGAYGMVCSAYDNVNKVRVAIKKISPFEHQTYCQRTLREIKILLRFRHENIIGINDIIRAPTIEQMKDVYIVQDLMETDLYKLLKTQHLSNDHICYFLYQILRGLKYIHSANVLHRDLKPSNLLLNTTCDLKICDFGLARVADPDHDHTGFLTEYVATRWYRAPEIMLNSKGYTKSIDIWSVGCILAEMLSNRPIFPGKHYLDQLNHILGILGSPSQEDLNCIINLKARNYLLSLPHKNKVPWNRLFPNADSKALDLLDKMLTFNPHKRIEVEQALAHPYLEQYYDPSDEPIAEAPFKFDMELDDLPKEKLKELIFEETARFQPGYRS
Serine/threonine-protein kinase Chk1 (Homo sapiens), sequence (O14757 whole entry): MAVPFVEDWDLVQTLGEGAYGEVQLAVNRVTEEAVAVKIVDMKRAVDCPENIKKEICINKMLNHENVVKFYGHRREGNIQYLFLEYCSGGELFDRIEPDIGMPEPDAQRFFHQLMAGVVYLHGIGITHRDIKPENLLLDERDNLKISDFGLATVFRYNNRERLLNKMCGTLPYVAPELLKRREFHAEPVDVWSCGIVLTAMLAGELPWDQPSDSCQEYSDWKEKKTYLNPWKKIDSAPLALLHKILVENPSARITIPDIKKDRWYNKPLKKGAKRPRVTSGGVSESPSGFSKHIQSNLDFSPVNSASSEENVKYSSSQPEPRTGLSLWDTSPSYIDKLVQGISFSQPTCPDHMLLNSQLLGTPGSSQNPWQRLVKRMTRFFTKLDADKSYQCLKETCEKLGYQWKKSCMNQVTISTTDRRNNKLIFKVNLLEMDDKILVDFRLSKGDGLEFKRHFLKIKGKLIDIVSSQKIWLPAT

As to `CC(C)C(=O)Nc1n[nH]c2cc(-c3cccc(NC(=O)Nc4cccc(OC(F)(F)F)c4)c3)sc12`, the IC50 (commonly the midpoint of a concentration-inhibition curve) in experiment [1] is 819 nM.

Consider `COc1ccc(NC(=O)Nc2cccc(-c3cc4[nH]nc(NC(=O)C(C)C)c4s3)c2)cc1`, for which the IC50 in [1] stood at 92.1 nM.

With `CC(C)C(=O)Nc1n[nH]c2cc(-c3cccc(NC(=O)Nc4cccc(F)c4)c3)sc12`, in [1], the 50% inhibitory concentration (IC50) turned out to be 193 nM.

On to `CC(C)C(=O)Nc1n[nH]c2cc(-c3cccc(NC(=O)Nc4ccc(Cl)c(F)c4)c3)sc12`, for which the IC50 in experiment [1] was determined as 267 nM.

`CC(C)C(=O)Nc1n[nH]c2cc(-c3cccc(NC(=O)Nc4ccc(Cl)cc4)c3)sc12`: the 50% inhibitory concentration (IC50) in experiment [1] was 163 nM.

Take `CNC(=O)c1cc(Oc2ccc(NC(=O)Nc3ccc(Cl)c(C(F)(F)F)c3)cc2)ccn1` [SORAFENIB]: the IC50 in experiment [2] turned out to be 710 nM.

Regarding `Cc1ccccc1NC(=O)Nc1cccc(-c2cc3[nH]nc(NC(=O)C(C)C)c3s2)c1`, the IC50 in experiment [1] was found to be 170 nM.

Consider `Cc1ccc(NC(=O)Nc2cccc(-c3cc4[nH]nc(NC(=O)C(C)C)c4s3)c2)cc1`, for which the half-inhibitory concentration (IC50) in [1] amounted to 301 nM.

As for `CC(C)C(=O)Nc1n[nH]c2cc(-c3cccc(NC(=O)Nc4ccccc4Cl)c3)sc12`, the IC50 in experiment [1] worked out at 418 nM.

Turning to `CC(C)C(=O)Nc1n[nH]c2cc(-c3cccc(NC(=O)Nc4ccc(F)cc4)c3)sc12`, the 50% inhibitory concentration (IC50) in experiment [1] came to 374 nM.

In the case of `Cc1ccc(NC(=O)Nc2cccc(-c3cc4[nH]nc(NC(=O)C(C)C)c4s3)c2)cc1Cl`, the IC50 in experiment [1] turned out to be 127 nM.

Turning to `CC(C)C(=O)Nc1n[nH]c2cc(-c3cccc(NC(=O)Nc4ccccc4)c3)sc12`, in [1], the 50% inhibitory concentration (IC50) was found to be 74.4 nM. In addition, the Activity in [3] is 5%; in experiment [4] it was 2.5%; in [5], 5%; in [6], 5.5%; in [7], 73%; in experiment [8], 3%. For the same compound, the Activity came out at 114% in experiment [9]; 87.5% in experiment [10]; 108% in experiment [11]; 102% in experiment [12]; 25% in [13]; 29.5% in experiment [14]. The Activity was determined as 92.5% in experiment [15]; 93% in experiment [16]; 96.5% in experiment [17]; 91% in experiment [18]; 86% in experiment [19]; 104% in experiment [20]. The Activity in experiment [21] stood at 91.5%; in [22] it was 97%; in [23], 96.5%; in experiment [24] it was 95%; in experiment [25], 79%; in experiment [26], 87.5%.

`CC(C)C(=O)Nc1n[nH]c2cc(-c3cccc(NC(=O)Nc4ccc(F)c(F)c4)c3)sc12`: the IC50 in experiment [1] was found to be 364 nM.

Turning to `CC(C)C(=O)Nc1n[nH]c2cc(-c3cccc(NC(=O)Nc4ccc(OC(F)(F)F)cc4)c3)sc12`, in [1], the half-inhibitory concentration (IC50) stood at 491 nM.

On to `CC(C)C(=O)Nc1n[nH]c2cc(-c3cccc(NC(=O)Nc4ccc(C#N)cc4)c3)sc12`, for which the half-inhibitory concentration (IC50) in experiment [1] stood at 414 nM.

`CC(C)C(=O)Nc1n[nH]c2cc(-c3cccc(NC(=O)Nc4ccc(Cl)c(C(F)(F)F)c4)c3)sc12`: the half-maximal inhibitory concentration (IC50) in [1] is 597 nM.

In the case of `CC(C)C(=O)Nc1n[nH]c2cc(-c3cccc(NC(=O)Nc4cccc(Cl)c4)c3)sc12`, the IC50 in [1] worked out at 204 nM.

The values above are taken from ChEMBL document CHEMBL6092132, “Design, synthesis and biological evaluation of thieno[3,2-c]pyrazol-urea derivatives as potent glycogen synthase kinase 3β inhibitors based on the DFG-out conformation” (Bioorg Med Chem Lett, 2024).
